Experimental data published in ChEMBL document CHEMBL6153155, “Novel Cyclohexyl Amido Acid Antagonists of Lysophosphatidic Acid Type 1 Receptor for the Treatment of Pulmonary Fibrosis” (ACS Med Chem Lett, 2025).

Key:
[1] = target: T1, Solute carrier organic anion transporter family member 1B1 (Homo sapiens, UniProt Q9Y6L6); test: Inhibition of human OATP1B1 in HEK293 cells; format: cell-based
T1 sequence (Q9Y6L6 whole entry): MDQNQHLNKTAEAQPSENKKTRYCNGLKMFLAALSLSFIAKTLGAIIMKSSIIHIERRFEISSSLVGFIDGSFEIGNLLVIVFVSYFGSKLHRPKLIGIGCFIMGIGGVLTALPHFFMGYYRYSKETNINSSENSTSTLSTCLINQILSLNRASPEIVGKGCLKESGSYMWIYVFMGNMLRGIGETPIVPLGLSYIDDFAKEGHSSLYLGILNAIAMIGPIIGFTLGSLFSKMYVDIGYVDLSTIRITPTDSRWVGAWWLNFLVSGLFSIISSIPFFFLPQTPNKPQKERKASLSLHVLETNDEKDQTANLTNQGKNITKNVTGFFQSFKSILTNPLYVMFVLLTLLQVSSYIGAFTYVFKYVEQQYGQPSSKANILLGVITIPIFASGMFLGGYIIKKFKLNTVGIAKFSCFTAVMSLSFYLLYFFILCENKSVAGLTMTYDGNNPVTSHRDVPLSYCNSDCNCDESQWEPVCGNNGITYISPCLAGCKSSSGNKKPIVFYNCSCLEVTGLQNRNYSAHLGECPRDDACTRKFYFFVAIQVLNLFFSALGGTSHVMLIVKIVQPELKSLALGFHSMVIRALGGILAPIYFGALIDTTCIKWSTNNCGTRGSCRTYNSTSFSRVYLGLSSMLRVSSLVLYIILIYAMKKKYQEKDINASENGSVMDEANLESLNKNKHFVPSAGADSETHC

[2] = Lipophilicity, logD of compound at pH 7.4 by chromatographic hydrophobicity index method; format: physicochemical; conditions: buffer

IC50 [1]: 5.01 µM
chromatographic logD [2]: 1.76
SMILES: Cc1nc(-c2onc(C)c2NC(=O)O[C@H](C)c2ccccc2Cl)ccc1NC(=O)[C@H]1CCCC[C@@H]1C(=O)O
